The results in this text go back to patent publication US12103952B2, “Methods for expressing proteins in axons” (Cornell University, priority 2010, dated 2024).

For one experiment, the system named is DRG axons. Put plainly: IRES-driven myr-dEGFP Sindbis reporter in compartmented cultures with translation inhibitors. In kind it is cell-based, rat. The settings on record: added for 48 hrs to the axonal compartment. The source says:
FIGS. 1A-O are data showing that the compartmentalization of DRGs enables axon-specific manipulations and quantitative measurement using fluorescent probes. (A) Immunofluorescence analysis of 3 DIV DRG cultures+/−5-FdU. […] Scale bar, 50 μm. […] Scale bar, 50 μm. (C) Immunofluorescence analysis of compartmented cultures (montage micrographs). Retrogradely labeled (WGA-Alexa555, red) DRG axons fasciculate and grow under the 1 mm divider into the axon compartment. Axons defasciculate as they enter the axon compartment. Cell bodies (DAPI, blue) are restricted to the cell body compartment. Only WGA-Alexa555 labeled cell bodies are included in data sets, as they comprise the population of neurons extending axons across the divider. (D) Dissociated DRG neurons (5 DIV) in compartmented cultures were treated with NGF in either or both compartments. […] Numbers on bars represent n cells per condition. (E, F) DRG axons in compartmented cultures were infected with a Sindbis virus encoding myr-dEGFP under the control of an IRES by applying the virus to both cell body and axonal compartments. […] All compartments were maintained in identical NGF-containing media throughout the course of the experiment. […] Incomplete abolishment of FISH signals, relative to siRNA-treated axons, reflects residual alternatively-spliced CREBβ transcripts in these hypomorphic animals (Blendy et al., EMBO Journal 15, 1098-1106 (1996)). Additionally, axonal mRNAs are trafficked as mRNA-ribosome complexes, and impaired CREBβ mRNA-ribosome interactions due to the poor Kozak site (Blendy et al., EMBO Journal 15, 1098-1106 (1996)) in this transcript may lead to inefficient trafficking. Scale bar, 10 μm. (H) Quantification of data in (G). *p<0.0001. Numbers on bars represent n axons per condition. (I) Similar to the experiment in FIG. 4A, except equivalent numbers of cell bodies and axon terminals were used for Western blotting. DRG explants were cultured in Boyden chambers, and the upper compartment was incubated in 0 ng/ml NGF. The lower compartment was incubated in either 0 ng/ml NGF or 100 ng/ml NGF for 3 hours. Axon lysates (˜10^4 cells) were prepared from the underside of the membrane and analysed by Western blot. As in FIG. 4A, only CREB was detected in axons, and CREB localization in […] axons was dependent on NGF in the culture media. (J) DRG cultures were transfected with CREB siRNA and CREB levels were detected using a CREB antibody. […] Scale bar, 20 μm. (K) Quantification of data in (J). *p<0.001. Numbers on bars represent n axons per condition. (L) E15 DRG neuronal lysate (10 μg) was subjected to immunoblotting with the CST-9192 CREB antibody. (M) CREB was detected by immunofluorescence using CREB antibody sc-186 (see I, FIG. 4A, and Table S4). Scale bar 10 μm. […] (0) Quantification of data in (M). *p<0.0001. […]

The next experiment concerns 4E-BP1. Put plainly: Phospho-4E-BP1 immunofluorescence in axons. In kind it is cell-based, rat. Conditions: NGF 1 hour after 2 hour NGF-free media. As to the method:
FIGS. 2A-E are results showing that local protein synthesis in axons is required for NGF-dependent survival. (A) Phospho-4E-BP1 levels increase in growth cones in response to NGF treatment. DRG neurons were incubated with NGF-replete or NGF-free media; phospho-4E-BP1 levels in axons were measured by immunofluorescence. Scale bar, 50 μm. (B) Quantification of total and phospho-4EBP1 in (A) p=0.012. Numbers on bars represent n axons per condition. (C) Schematic diagram of compartmented (Campenot) chambers. E15 dissociated DRG neurons are cultured in the cell body compartment and axons grow under a thinly applied silicone grease layer that seals the chamber with the Permanox® plastic culture slide. (D) Application of protein synthesis inhibitors to axons blocks NGF-mediated retrograde survival. Dissociated DRG neurons were grown in compartmentalized chambers, and vehicle or NGF was added to the axon compartment. 1 μM cycloheximide (CHX) or 40 μM anisomycin (Aniso) were added to the axon compartment concurrently with NGF media. Cell body compartments were kept NGF-free during the course of the experiment. Cells crossing the divider were retrogradely labeled with WGA-Alexa555 and only WGA-positive cell bodies were counted in the data set. Survival was assessed by TUNEL assay. […] (E) Quantification of results from (D). *p<0.001. […]

In the case of `COc1ccc(C[C@H]2NC[C@H](O)[C@H]2OC(C)=O)cc1` [anisomycin], in the experiment on DRG axons, the “myr-EGFP fluorescence in the axonal compartment” value is recorded as “loss of myr-EGFP fluorescence” and the “myr-EGFP levels in the cell body compartment” value was “no significant effect”.

For `C[C@@H]1C[C@@H]([C@H](O)CC2CC(=O)NC(=O)C2)C(=O)[C@@H](C)C1` [cycloheximide], in the experiment on DRG axons, the “myr-EGFP fluorescence in the axonal compartment” value is listed as “loss of myr-EGFP fluorescence” and the “myr-EGFP levels in the cell body compartment” value was “no significant effect”.

As for NGF: nerve growth factor, in the experiment with 4E-BP1, the “phosphorylation of 4E-BP1 in axons” value is “increased phosphorylation of 4E-BP1 at S64 and T69”.
